pIC50: −log10 of the molar value.
Target: SARS-CoV-2 Papain like protease (PLpro) (Severe acute respiratory syndrome coronavirus 2 (2019-nCoV) (SARS-CoV-2), UniProt P0DTD1)
Experiment: Papain Like Protease (PLpro) biochemical assay with profluorogenic substrate Z-RLRGG-AMC
Settings: SARS-CoV-2 PLpro 6.25 nM, 25 μM Z-RLRGG-AMC substrate, 60 minute reaction; read-out: IC50

Compound	pIC50
Cc1ccccc1C(=O)NC(C)c1cc(-c2cn(C(C)C)nc2C)nc2ccccc12 (stereo not drawn) [Example 136, 2-methyl-N-(1-{2-[3-methyl-1-(propan-2-yl)-1H-pyrazol-4-yl]quinolin-4-yl}ethyl) benzamide]	5.85
Cc1ccccc1C(=O)NC(C)c1cc(-c2cncc(F)c2)nc2ccccc12 (stereo not drawn) [Example 137, N-{1-[2-(5-fluoropyridin-3-yl)quinolin-4-yl]ethyl}-2-methylbenzamide]	5.95
Cc1ccccc1C(=O)NC(C)c1cc(NCc2cocn2)nc2ccccc12 (stereo not drawn) [Example 138, 2-methyl-N-[1-(2-{[(1,3-oxazol-4-yl)methyl]amino}-quinolin-4-yl)ethyl]benzamide]	6.03
Cc1ccccc1C(=O)NC(C)c1cc(NCc2cnco2)nc2ccccc12 (stereo not drawn) [Example 139, 2-methyl-N-[1-(2-{[(1,3-oxazol-5-yl)methyl]amino}-quinolin-4-yl)ethyl]benzamide]	6.17
Cc1ccccc1C(=O)NC(C)c1cc(NCC2CCCOC2)nc2ccccc12 (stereo not drawn) [Example 140, 2-methyl-N-[1-(2-{[(oxan-3-yl)methyl]amino}quinolin-4-yl)ethyl]benzamide]	5.71
Cc1ccccc1C(=O)NC(C)c1cc(NCC2CCOCC2)nc2ccccc12 (stereo not drawn) [Example 141, 2-methyl-N-[1-(2-{[(oxan-4-yl)methyl]amino}quinolin-4-yl)ethyl]benzamide]	6.11
Cc1ccccc1C(=O)NC(C)c1cc(NC2CCOC2)nc2ccccc12 (stereo not drawn) [Example 142, 2-methyl-N-(1-{2-[(oxolan-3-yl)amino]quinolin-4-yl}ethyl)benzamide]	6.05
Cc1ccccc1C(=O)NC(C)c1cc(N(C)CCC(=O)N(C)C)nc2ccccc12 (stereo not drawn) [Example 143, N-[1-(2-{[3-(dimethylamino)-3-oxopropyl](methyl)amino}-quinolin-4-yl)ethyl]-2-methylbenzamide]	5.07
Cc1ccccc1C(=O)NC(C)c1cc(NCC2CCS(=O)(=O)CC2)nc2ccccc12 (stereo not drawn) [Example 144, N-(1-(2-(((1,1-dioxidotetrahydro-2H-thiopyran-4-yl)methyl)-amino)quinolin-4-yl)ethyl)-2-methylbenzamide]	5.95
Cc1ccccc1C(=O)NC(C)c1cc(NC2(C#N)CC2)nc2ccccc12 (stereo not drawn) [Example 145, N-(1-{2-[(1-cyanocyclopropyl)amino]quinolin-4-yl}ethyl)-2-methylbenzamide]	5.60
Cc1ccccc1C(=O)NC(C)c1cc(NCC(=O)N2CCOCC2)nc2ccccc12 (stereo not drawn) [Example 146, 2-methyl-N-[1-(2-{[2-(morpholin-4-yl)-2-oxoethyl]amino}-quinolin-4-yl)ethyl]benzamide]	5.35
Cc1ccccc1C(=O)NC(C)c1cc(NC2CCCOC2)nc2ccccc12 (stereo not drawn) [Example 147]	6.04
Cc1ccccc1C(=O)NC(C)c1cc(NCCS(=O)(=O)N(C)C)nc2ccccc12 (stereo not drawn) [Example 148, N-[1-(2-{[2-(dimethylsulfamoyl)ethyl]amino}quinolin-4-yl)ethyl]-2-methylbenzamide]	5.75
CCN(CCOC)c1cc(C(C)NC(=O)c2ccccc2C)c2ccccc2n1 (stereo not drawn) [Example 149, N-(1-{2-[ethyl(2-methoxyethyl)amino]quinolin-4-yl}ethyl)-2-methylbenzamide]	5.66
Cc1ccccc1C(=O)NC(C)c1cc(NCC2CCN(S(C)(=O)=O)CC2)nc2ccccc12 (stereo not drawn) [Example 150]	5.97
Cc1ccccc1C(=O)NC(C)c1cc(N2CCC(S(=O)(=O)N(C)C)CC2)nc2ccccc12 (stereo not drawn) [Example 151, N-(1-{2-[4-(dimethylsulfamoyl)piperidin-1-yl]quinolin-4-yl}ethyl)-2-methylbenzamide]	5.84
Cc1cc(CC(=O)O)ccc1C(=O)N[C@H](C)c1cc(-c2cnn(C)c2)nc2ccccc12 [Example 200, (R)-2-(3-methyl-4-((1-(2-(1-methyl-1H-pyrazol-4-yl)quinolin-4-yl)ethyl)carbamoyl)phenyl)acetic acid]	6.10
Cc1cc(C(=O)NCc2cscn2)ccc1C(=O)N[C@H](C)c1cc(-c2cnn(C)c2)nc2ccccc12 [Example 201, (R)-2-methyl-N1-(1-(2-(1-methyl-1H-pyrazol-4-yl)quinolin-4-yl)ethyl)-N4-(thiazol-4-ylmethyl)terephthalamide]	8.52
Cc1cc(C(=O)NC(C)c2cscn2)ccc1C(=O)N[C@H](C)c1cc(-c2cnn(C)c2)nc2ccccc12 (stereo partly drawn) [Example 202]	7.92
Cc1cc(C(=O)NCc2ncsc2C)ccc1C(=O)N[C@H](C)c1cc(-c2cnn(C)c2)nc2ccccc12 [Example 203]	8.70
Cc1nc(CNC(=O)c2ccc(C(=O)N[C@H](C)c3cc(-c4cnn(C)c4)nc4ccccc34)c(C)c2)cs1 [Example 204]	7.14
COc1c(-c2cnn(C)c2)cc(C(C)NC(=O)c2cc(CN)ccc2C)c2ccccc12 (stereo not drawn) [Example 205]	7.37
Cc1cc(CNCc2cscn2)ccc1C(=O)NC1(c2cc(-c3cnn(C)c3)nc3ccccc23)CC1 [Example 210]	8.22
Cc1cc(C2(NC(=O)c3cscn3)CC2)ccc1C(=O)N[C@H](C)c1cc(-c2cnn(C)c2)nc2ccccc12 [Example 212, (R)-N-(1-(3-methyl-4-((1-(2-(1-methyl-1H-pyrazol-4-yl)quinolin-4-yl)ethyl)carbamoyl)phenyl)cyclopropyl)thiazole-4-carboxamide]	7.24
Cc1cc(C2(NC(=O)c3ncc[nH]3)CC2)ccc1C(=O)N[C@H](C)c1cc(-c2cnn(C)c2)nc2ccccc12 [Example 213, (R)-N-(1-(3-methyl-4-((1-(2-(1-methyl-1H-pyrazol-4-yl)quinolin-4-yl)ethyl)carbamoyl)phenyl)cyclopropyl)-1H-imidazole-2-carboxamide]	6.66
Cc1cc(C(C)(C)NC(=O)c2cscn2)ccc1C(=O)N[C@H](C)c1cc(-c2cnn(C)c2)nc2ccccc12 [Example 214, (R)-N-(2-(3-methyl-4-((1-(2-(1-methyl-1H-pyrazol-4-yl)quinolin-4-yl)ethyl)carbamoyl)phenyl)propan-2-yl)thiazole-4-carboxamide]	6.77
Cc1cc(C(C)(C)NC(=O)c2ncc[nH]2)ccc1C(=O)N[C@H](C)c1cc(-c2cnn(C)c2)nc2ccccc12 [Example 215, (R)-N-(2-(3-methyl-4-((1-(2-(1-methyl-1H-pyrazol-4-yl)quinolin-4-yl)ethyl)carbamoyl)phenyl)propan-2-yl)-1H-imidazole-2-carboxamide]	6.84
Cc1ccc(N2CCN(C)CC2)cc1C(=O)NC(C)c1cc(-c2cc(C(=O)O)c[nH]2)cc2ccccc12 (stereo not drawn) [Example 216, 5-(4-(1-(2-methyl-5-(4-methylpiperazin-1-yl)benzamido)ethyl)naphthalen-2-yl)-1H-pyrrole-3-carboxylic acid]	7.92
Cc1ccc(CN)cc1C(=O)NC(C)c1cc(-c2cnn(C)c2)c(O)c2ccccc12 (stereo not drawn) [Example 217, 5-(aminomethyl)-N-(1-(4-hydroxy-3-(1-methyl-1H-pyrazol-4-yl)naphthalen-1-yl)ethyl)-2-methylbenzamide]	6.92
C[C@@H](NC(=O)c1ccccc1CCC(=O)NNC(=O)[C@H]1O[C@@H]1C(=O)O)c1cc(-c2cnn(C)c2)nc2ccccc12 [Example 219, (2S,3S)-3-(2-(3-(2-(((R)-1-(2-(1-methyl-1H-pyrazol-4-yl)quinolin-4-yl)ethyl)carbamoyl)phenyl)propanoyl)hydrazine-1-carbonyl)oxirane-2-carboxylic acid]	9.00

Reference: patent publication US20240245673A1, “Papain-like protease (PLpro) inhibitors” (Pfizer Inc., priority 2022, published 2024)
